Laboratory results from ChEMBL document CHEMBL1121413, “Synthesis, beta-adrenergic activity, and platelet antiaggregatory activity of a positional isomer of trimetoquinol: 1-(2',4',5'-trimethoxybenzyl)-6,7-dihydroxy-1,2,3,4,-tetrahydroisoquinoline” (J Med Chem, 1980).

Tests used:
[1] = biological target: T1, Adrenergic receptor beta (Homo sapiens) (UniProt P08588+P07550+P13945); details: Cavia porcellus
Description: Tested for potent Beta adrenergic receptor action in the atria of guinea pig

[2] = biological target: T1, Adrenergic receptor beta (Homo sapiens); details: Cavia porcellus; remark: listed apart in the source

COc1cc(CC2NCCc3cc(O)c(O)cc32)cc(OC)c1OC (configuration not stated)
pD2 [1]: 8.8
pD2 [2]: 7.8
